This is an account of results in patent publication US20210387964A1, “HETEROARYLAMINOQUINOLINES AND ANALOGUES” (Bayer Aktiengesellschaft, priority 2018, published 2021).

One series can be described thus: log P by HPLC on reversed-phase column (C 18), EEC Directive 79/831 Annex V.A8. In kind it is physicochemical.
Conditions: not given
On the procedure: In table 1, the log P values were determined in accordance with EEC Directive 79/831 Annex V.A8 by HPLC (High Performance Liquid Chromatography) on a reversed-phase column (C 18), using the method described below: […] If more than one Log P value is available within the same method, all the values are given and separated by “;”.
One may read the logP as the decadic logarithm of the partition coefficient of the neutral form, usually between octanol and water. The low end stands for lower lipophilicity, the high end for higher lipophilicity. `Cc1nc2ccccc2nc1Nc1cccnc1-c1ccnn1C` [I.01] showed a logP of 1.88.
Take `Cn1nccc1-c1ncccc1Nc1cnc2c(F)cccc2c1` [I.02]: the logP came to 1.72.
Consider `Cc1c(Nc2ccsc2-c2ccnn2C)cnc2ccccc12` [I.03], for which the logP is listed as 1.39.
Regarding `Cc1nc2ccccc2nc1Nc1ccsc1-c1ccnn1C` [I.04], the logP amounted to 2.47.
In turn, `Cn1nccc1-c1sccc1Nc1cnc2c(F)cccc2c1` [I.05] displayed a logP of 2.49.
`CCn1nccc1-c1sccc1Nc1cnc2ccccc2c1C` [I.06] showed a logP of 1.60.
Compound `CCn1nccc1-c1sccc1Nc1nc2ccccc2nc1C` [I.07] returned a logP of 2.80.
Still for that read-out and setting: the figure for `Cn1nccc1-c1ncccc1Nc1cnc2ccccc2c1Cl` [I.08] is 2.02; for `Cn1nccc1-c1ncccc1Nc1cnc2c(F)c(F)ccc2c1` [I.09] it is 1.93; for `Cn1nccc1-c1ncccc1Nc1cnc2c(F)c(F)ccc2n1` [I.10] it is 2.13.
For the compound `CCn1nccc1-c1sccc1Nc1cnc2c(F)cccc2c1` [I.11], the logP was 2.75.
For the compound `Cn1nccc1-c1sccc1Nc1cnc2ccccc2c1Cl` [I.12], the logP was determined as 2.66.
What is called chromatographic logP is lipophilicity estimated from chromatographic retention. Lower therefore signals lower lipophilicity. With `Cn1nccc1-c1sccc1Nc1cnc2c(F)c(F)ccc2c1` [I.13, 7,8-difluoro-N-[2-(1-methyl-1H-pyrazol-5-yl)-3-thienyl]quinolin-3-amine], the chromatographic logP amounted to 2.71.
Take `Cn1nccc1-c1sccc1Nc1cnc2c(F)c(F)ccc2n1` [I.14]: the logP is given as 2.94.
For the compound `Cc1nc2c(F)c(F)ccc2cc1Cc1cccnc1-c1ccnn1C` [I.15], the logP was 2.17.
Regarding `Cc1nc2c(F)c(F)ccc2cc1Nc1cccnc1-c1ccnn1C` [I.16], the logP was 2.04.
The same measure, in the same setting: the result for `Cc1nc2c(F)c(F)ccc2nc1Nc1cccnc1-c1ccnn1C` [I.17] reads 2.23; that for `Cc1nc2c(F)c(F)ccc2cc1Cc1cccnc1-c1ccsc1` [I.18], 2.05.
Compound `Cc1nc2c(F)c(F)ccc2nc1Nc1cncnc1-c1ccnn1C` [I.19] returned a logP of 2.00.
As to `CCn1nccc1-c1sccc1Nc1cnc2ccccc2c1Cl` [I.20], the logP was 2.98.
In turn, `Cc1nc2c(F)c(F)ccc2cc1Nc1ccsc1-c1ccnn1C` [I.21] returned a logP of 2.74.
Regarding `CCn1nccc1-c1sccc1Nc1cnc2c(F)c(F)ccc2c1` [I.22], the logP is 2.92.
For `CCn1nccc1-c1sccc1Nc1cnc2c(F)c(F)ccc2n1` [I.23], the logP is 3.29.
`Cc1nc2c(F)c(F)ccc2nc1Nc1ccsc1-c1ccnn1C` [I.24] yielded a logP of 2.90.
As to `CCn1nccc1-c1sccc1Nc1cc2ccc(F)c(F)c2nc1C` [I.25], the lipophilicity (logP) is listed as 3.11.
Still for that read-out and setting: the result for `CCn1nccc1-c1sccc1Nc1nc2ccc(F)c(F)c2nc1C` [I.26] reads 3.27; that for `CCCn1nccc1-c1cnccc1Nc1nc2ccc(F)c(F)c2nc1C` [I.27], 2.33; that for `CCn1nccc1-c1c(F)cncc1Nc1cc2ccc(F)c(F)c2nc1C` [I.28], 2.60.
The compound `Cc1nc2c(F)c(F)ccc2cc1Nc1ccnc(Cl)c1-c1ccnn1C` [I.29, N-[2-chloro-3-(1-methyl-1H-pyrazol-5-yl)pyridin-4-yl]-7,8-difluoro-2-methylquinolin-3-amine] showed a chromatographic logP of 2.27.
In turn, `CCn1nccc1-c1c(Nc2nc3ccc(F)c(F)c3nc2C)cncc1OC` [I.30] displayed a logP of 2.28.
Compound `CCCn1nccc1-c1c(F)cncc1Nc1cc2ccc(F)c(F)c2nc1C` [I.31] displayed a logP of 2.86.
As to `CCn1nccc1-c1c(Cl)cncc1Nc1nc2ccc(F)c(F)c2nc1C` [I.32], the logP is 3.06.
The same measure, in the same setting: the result for `CCCn1nccc1-c1c(Nc2nc3ccc(F)c(F)c3nc2C)cncc1OC` [I.33] reads 2.64.
The same measure, in the same setting: the figure for `CCCn1nccc1-c1c(Nc2cc3ccc(F)c(F)c3nc2C)ccnc1Cl` [I.34] is 2.82.
Turning to `CCCn1nccc1-c1c(Cl)cncc1Nc1nc2ccc(F)c(F)c2nc1C` [I.35, N-[5-chloro-4-(1-propyl-1H-pyrazol-5-yl)pyridin-3-yl]-5,6-difluoro-3-methylquinoxalin-2-amine], the chromatographic logP was 3.44.
Take `Cn1nccc1-c1cscc1Cc1cnc2c(F)cccc2c1` [I.36]: the logP turned out to be 2.49.
Compound `Fc1cccc2cc(Cc3cscc3-c3ccsc3)cnc12` [I.37] gave a logP of 3.77.
As for `Cc1nc2c(F)c(F)ccc2cc1Cc1cscc1-c1ccnn1C` [I.38, 7,8-difluoro-2-methyl-3-{[4-(1-methyl-1H-pyrazol-5-yl)-3-thienyl]methyl}quinoline], the chromatographic logP worked out at 3.01.
With `Cc1nc2c(F)c(F)ccc2cc1Cc1cscc1-c1ccsc1` [I.39], the logP was 4.47.
Still for that read-out and setting: the result for `CCCn1nccc1-c1c(C)cncc1Nc1cc2ccc(F)c(F)c2nc1C` [I.40] reads 2.11; that for `CCn1nccc1-c1c(F)cncc1Nc1cc2ccc(F)c(OC)c2nc1C` [I.41], 2.22.
Compound `CCn1nccc1-c1c(Nc2cc3ccc(F)c(F)c3nc2C)cncc1OC` [I.42] showed a logP of 2.06.
Turning to `CCn1nccc1-c1c(Cl)cncc1Nc1cc2ccc(F)c(F)c2nc1C` [I.43], the logP came to 2.86.
For the compound `CCCn1nccc1-c1c(F)cncc1Nc1cc2ccc(F)c(OC)c2nc1C` [I.44], the logP turned out to be 2.51.
Still for that read-out and setting: the figure for `CCCn1nccc1-c1c(Nc2cc3ccc(F)c(F)c3nc2C)cncc1OC` [I.45] is 2.30.
For the compound `CCCn1nccc1-c1c(Cl)cncc1Nc1cc2ccc(F)c(F)c2nc1C` [I.46], the logP was 3.20.
`CCOCn1nccc1-c1ccsc1Cc1cnc2c(F)cccc2c1` [I.47] gave a logP of 3.10.
On to `CCOCn1nccc1-c1ccsc1Cc1cc2ccc(F)c(F)c2nc1C` [I.48], for which the logP stood at 3.64.
The same measure, in the same setting: the result for `Cc1nc2c(F)c(F)ccc2cc1Cc1cccnc1Br` [IIa.01] reads 2.92.
Compound `CS(=O)(=O)N(c1cnc2c(F)cccc2c1)c1cccnc1Cl` [IIa.02] yielded a logP of 2.07.
As to `Cc1nc2c(F)c(F)ccc2nc1Nc1cnccc1Cl` [IIc.01], the logP is listed as 2.41.
In turn, `Cc1nc2c(F)c(F)ccc2cc1Nc1cncc(F)c1I` [IIc.02] gave a logP of 2.94.
The compound `Fc1cccc2cc(Cc3cscc3Br)cnc12` [IIf.01] yielded a logP of 3.36.
`Cc1nc2c(F)c(F)ccc2cc1Cc1cscc1Br` [IIf.02, 3-[(4-bromo-3-thienyl)methyl]-7,8-difluoro-2-methylquinoline] had a chromatographic logP of 4.
Turning to `Fc1cccc2cc(Cc3sccc3Br)cnc12` [IIg.01], the logP is 3.50.
In turn, `Cc1nc2c(F)c(F)ccc2cc1Cc1sccc1Br` [IIg.02] registered a logP of 4.19.
Regarding `CCn1nccc1-c1ccncc1Cl` [IXc.01, 3-chloro-4-(1-ethyl-1H-pyrazol-5-yl)pyridine], the chromatographic logP was 1.73.
As for `Cn1nccc1-c1sccc1Br` [IXe.01, 5-(3-bromo-2-thienyl)-1-methyl-1H-pyrazole], the chromatographic logP came to 2.29.
In turn, `CCn1nccc1-c1sccc1Br` [IXe.02, 5-(3-bromo-2-thienyl)-1-ethyl-1H-pyrazole] displayed a chromatographic logP of 2.72.
The same measure, in the same setting: the result for `CCCn1nccc1-c1ccncc1N` [XIc.01, 4-(1-propyl-1H-pyrazol-5-yl)pyridin-3-amine] reads 0.11; that for `CCn1nccc1-c1c(N)cncc1OC` [XIc.02, 4-(1-ethyl-1H-pyrazol-5-yl)-5-methoxypyridin-3-amine], 0.08; that for `CCn1nccc1-c1c(N)cncc1Cl` [XIc.03, 5-chloro-4-(1-ethyl-1H-pyrazol-5-yl)pyridin-3-amine], 1.3.
The compound `CCCn1nccc1-c1c(N)cncc1OC` [XIc.04, 5-methoxy-4-(1-propyl-1H-pyrazol-5-yl)pyridin-3-amine] yielded a chromatographic logP of 0.45.
As to `CCCn1nccc1-c1c(N)cncc1Cl` [XIc.05, 5-chloro-4-(1-propyl-1H-pyrazol-5-yl)pyridin-3-amine], the chromatographic logP came to 1.64.

The series is the same for the next values; noted with them: HPLC, reversed-phase C 18, 40° C., 0.1% aqueous formic acid and acetonitrile, gradient 10% to 95% acetonitrile.
In turn, “3-bromo-2-(1-methyl-1H-pyrazol-5-yl)pyridine [IXa.01]” yielded a logP of 1.53.
